Key:
[1] = tested on: patients with primary open angle glaucoma; experiment: Trial 2: intraocular pressure by Goldmann applanation tonometry; type: in vivo, human; conditions: AcuStream vs standard eye dropper; Wilcoxon Ranked Sum test, p=0.3447
Experimental: Trial 2 compared the efficacy (dose volume equivalence) of 0.005% w/v latanoprost for intraocular pressure reduction when delivered via AcuStream™ (pre-trial calibration volume=9.2 μl) versus the standard eye dropper for topical drug delivery (approximate volume=30 μl).
Patients included in Trial 2 have previously been diagnosed with primary open angle glaucoma on the basis of intraocular pressure and visual field testing, fundus examination or optical coherence tomography (OCT) data and are currently on prostaglandin analog medical therapy. Patients with corneal abnormalities that would interfere with accurate IOP measurements with applanation tonometry, use of an oral or topical ophthalmic steroids within the past 14 days from screening date, any active ocular surface or anterior segment disease, or progressive field loss during the past year were excluded from the study. Thirteen men and five women participated in the trial. […]
After performing slit lamp examinations on each patient to verify eligibility and obtaining informed consent, intraocular pressure (IOP) was measured by a sole experienced examiner who was blind to the randomized conditions. […]
Latanoprost solution was administered by a sole ophthalmologist to both eyes of each patient, based on the pre-determined randomized condition.

eye of subjects = experiment: Presbyopia: pupil diameter after self-administered pilocarpine micro-dose; type: in vivo, human
Experimental: A 10 μl micro-dose of a 1% pilocarpine solution was self-administered using an electromagnetic actuated fluid delivery device, e.g., as described above, by three subjects to their own eye. The age range of the subjects was 52 years to 68 years, and all subjects were male. The pilocarpine micro-dose was self-administered by the subjects.
Baseline, pre-dose values of pupil diameter and near visual acuity in both eyes prior to dosing was measured for all subjects, and then following the baseline measurements, the subjects were dosed in only one eye (the eye with the poorer visual acuity) with the micro-dose pilocarpine solution. Approximately 45 to 60 minutes after dosing, pupil diameter and near visual acuity were again tested. Near visual acuity was measured using a Snellen card at a distance of 40 cm. A tabulation of results is given below in Table A.

| SMILES | difference in IOP reduction between groups [1] | miotic effect in non-dosed eye (eye of subjects) |
| --- | --- | --- |
| CC(C)OC(=O)CCC/C=C\C[C@@H]1[C@@H](CC[C@@H](O)CCc2ccccc2)[C@H](O)C[C@@H]1O [latanoprost] | no statistically significant differences | – |
| CC[C@@H]1C(=O)OC[C@@H]1Cc1cncn1C [pilocarpine] | – | no miotic effect |

Source: US12350194B1, “Topical ocular delivery of fluids with controlled mass dosing and wireless communication” (Bausch + Lomb Ireland Limited, priority 2018, dated 2025)
